From patent US5389644A, “1,4-dihydropyridine compounds” (priority 1992, dated 1995)
pIC50: −log10 of the molar value.

Legend:
[1] = tested on: KB-A1; experiment: Cytotoxicity: reversal of resistance to adriamycin (reversion factor), line KB-A1; type: cell-based, Human
Description: (§1) The parameter measured is the cytotoxicity of the antitumour drug, quantified in the absence and in the presence of the reversing compound. […] The compounds tested for their capacity to reverse the resistance are added at the same time as the cytotoxic agent. The cells are then incubated for 4 days.

[2] = tested on: DC-3F/AD; experiment: Cytotoxicity: reversal of resistance to actinomycin D (reversion factor), line DC-3F/AD; type: cell-based, Chinese hamster
Description: as §1, with “compound. Two resistant cell lines were used: 1 Chinese hamster lung line, DC-3F/AD, the resistance of which was induced by actinomycin D.” for “compound.”

[3] = target: T1, calcium channel (Sus scrofa, UniProt A0A8W4FNC0); experiment: Affinity for the calcium channel labelled with [^3 ] PN 200110, aorta smooth muscle microsome preparations; type: binding; settings: pig aorta smooth muscle microsomes; means of three independent experiments
T1 construct: pig aorta smooth muscle microsome preparations; from tissue; host or cells: pig aorta smooth muscle microsomes
Description: The results are expressed as IC50 (M) and represent means of three independent experiments.

T1 sequence (A0A8W4FNC0 1-2067): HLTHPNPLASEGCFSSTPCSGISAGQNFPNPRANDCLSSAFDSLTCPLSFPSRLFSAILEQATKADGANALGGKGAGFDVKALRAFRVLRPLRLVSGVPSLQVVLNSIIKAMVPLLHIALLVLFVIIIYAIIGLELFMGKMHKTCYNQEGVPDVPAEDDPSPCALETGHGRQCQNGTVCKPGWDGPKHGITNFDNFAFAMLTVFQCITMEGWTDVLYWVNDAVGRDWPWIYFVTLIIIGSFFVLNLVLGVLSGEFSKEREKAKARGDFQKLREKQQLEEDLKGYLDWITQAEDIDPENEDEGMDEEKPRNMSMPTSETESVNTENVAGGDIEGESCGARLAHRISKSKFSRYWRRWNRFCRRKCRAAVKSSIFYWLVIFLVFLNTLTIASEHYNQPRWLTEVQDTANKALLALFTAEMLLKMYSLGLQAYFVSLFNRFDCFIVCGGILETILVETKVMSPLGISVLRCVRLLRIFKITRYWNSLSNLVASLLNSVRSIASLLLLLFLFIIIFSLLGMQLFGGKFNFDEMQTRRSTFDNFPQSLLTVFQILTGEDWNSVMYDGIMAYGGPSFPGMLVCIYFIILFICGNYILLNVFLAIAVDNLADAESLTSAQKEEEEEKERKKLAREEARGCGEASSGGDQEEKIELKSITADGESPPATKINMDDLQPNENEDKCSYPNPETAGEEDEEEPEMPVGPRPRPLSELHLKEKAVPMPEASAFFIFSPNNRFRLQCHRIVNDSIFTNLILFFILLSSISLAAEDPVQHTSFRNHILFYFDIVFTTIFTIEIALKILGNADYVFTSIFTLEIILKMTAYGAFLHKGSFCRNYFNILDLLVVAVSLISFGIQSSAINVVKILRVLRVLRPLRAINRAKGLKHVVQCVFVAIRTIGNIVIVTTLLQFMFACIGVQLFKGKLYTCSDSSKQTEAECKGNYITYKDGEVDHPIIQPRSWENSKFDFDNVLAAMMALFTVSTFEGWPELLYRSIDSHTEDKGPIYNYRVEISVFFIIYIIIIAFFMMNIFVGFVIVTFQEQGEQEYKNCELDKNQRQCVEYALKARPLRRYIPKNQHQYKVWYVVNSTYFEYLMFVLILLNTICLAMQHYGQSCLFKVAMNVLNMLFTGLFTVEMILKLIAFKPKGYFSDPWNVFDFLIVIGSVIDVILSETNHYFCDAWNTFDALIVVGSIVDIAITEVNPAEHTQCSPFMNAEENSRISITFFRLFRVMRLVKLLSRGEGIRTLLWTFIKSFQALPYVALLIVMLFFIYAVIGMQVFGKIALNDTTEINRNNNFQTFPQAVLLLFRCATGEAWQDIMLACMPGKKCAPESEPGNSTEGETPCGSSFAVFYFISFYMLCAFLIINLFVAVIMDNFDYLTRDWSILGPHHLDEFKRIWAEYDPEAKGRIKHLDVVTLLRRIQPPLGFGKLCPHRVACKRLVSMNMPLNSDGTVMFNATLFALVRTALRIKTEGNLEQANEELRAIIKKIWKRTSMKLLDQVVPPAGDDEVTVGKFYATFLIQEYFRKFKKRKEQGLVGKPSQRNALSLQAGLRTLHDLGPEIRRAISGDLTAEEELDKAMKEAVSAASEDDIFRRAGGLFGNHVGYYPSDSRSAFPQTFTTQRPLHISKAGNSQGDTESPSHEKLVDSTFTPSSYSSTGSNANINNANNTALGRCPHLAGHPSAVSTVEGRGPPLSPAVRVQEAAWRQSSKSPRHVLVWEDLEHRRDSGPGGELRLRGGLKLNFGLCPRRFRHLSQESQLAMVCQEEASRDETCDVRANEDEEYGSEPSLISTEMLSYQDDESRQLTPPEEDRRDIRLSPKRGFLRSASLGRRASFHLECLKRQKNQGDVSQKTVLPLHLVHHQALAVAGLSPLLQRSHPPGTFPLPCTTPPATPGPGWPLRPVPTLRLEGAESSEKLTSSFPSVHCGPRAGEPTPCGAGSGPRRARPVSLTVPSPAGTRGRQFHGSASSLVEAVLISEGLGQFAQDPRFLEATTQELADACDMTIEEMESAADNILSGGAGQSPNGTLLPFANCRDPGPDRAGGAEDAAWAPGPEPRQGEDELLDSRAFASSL

SMILES | reversion factor (RF) ([1]; compound 1 μM) | reversion factor (RF) ([1]; compound 5 μM) | reversion factor (RF) ([2]; compound 1 μM) | reversion factor (RF) ([2]; compound 5 μM) | pIC50 [3]
CCOC(=O)C1=C(COCCOCCNCc2ccnc3ccccc23)NC(C)=C(C(=O)OC)C1c1cccc(Cl)c1Cl (stereo not drawn) [Example 18, d-2-{[2-(2-(N-quinol-4-ylmethylamino)ethoxy)ethoxy]methyl}-4-(2,3-dichlorophenyl)-3-ethoxycarbonyl-5-methoxycarbonyl-6-methyl-1,4-dihydropyridine] | 4.3 | 348.2 | 3.3 | 5,018.4 | 5.96
CCOC(=O)C1=C(COCCOCCNCc2ccccn2)NC(C)=C(C(=O)OC)C1c1cccc(Cl)c1Cl (stereo not drawn) [Example 16, d-2-{[2-(2-(N-pyrid-2-ylmethylamino)ethoxy)ethoxy]methyl}-4-(2,3-dichlorophenyl)-3-ethoxycarbonyl-5-methoxycarbonyl-6-methyl-1,4-dihydropyridine] | 13.9 | 122.4 | 3.4 | 8,248.4 | 5.80
CCOC(=O)C1=C(COCCOCCNCc2ccc3ccccc3c2)NC(C)=C(C(=O)OC)C1c1cccc(Cl)c1Cl (stereo not drawn) [Example 12, d-2-{[2-(2-(N-naphth-2-ylmethylamino)ethoxy)ethoxy]methyl}-4-(2,3-dichlorophenyl)-3-ethoxycarbonyl-5-methoxycarbonyl-6-methyl-1,4-dihydropyridine] | 1.2 | 125.4 | 1.1 | 1,320.1 | 5.89
CCOC(=O)C1=C(COCCOCCNCc2cnc3ccccc3c2)NC(C)=C(C(=O)OC)C1c1cccc(Cl)c1Cl (stereo not drawn) [Example 23, d-2-{[2-(2-[N-(quinol-3-yl)methylamino]ethoxy)ethoxy]methyl}-4-(2,3-dichlorophenyl)-3-ethoxycarbonyl-5-methoxycarbonyl-6-methyl-1,4-dihydropyridine] | 19.6 | 1,035.8 | 10.2 | 2,304.0 | 5.70
CCOC(=O)C1=C(COCCOCCNCc2cccnc2)NC(C)=C(C(=O)OC)C1c1cccc(Cl)c1Cl (stereo not drawn) [Example 17, d-2-{[2-(2-(N-pyrid-3-ylmethylamino)ethoxy)ethoxy]methyl}-4-(2,3-dichlorophenyl)-3-ethoxycarbonyl-5-methoxycarbonyl-6-methyl-1,4-dihydropyridine] | 10.5 | 120.7 | 3.7 | 8,600.0 | 5.85
